Laboratory results reported in patent publication US10604476B2, “Fluorinated amide derivatives and their uses as therapeutic agents” (Trillium Therapeutics Inc., priority 2015, dated 2020).

What was measured:
[1] = test system: fully kindled (stage 5) seizures, amygdala kindled rat; test: Amygdala kindled rat model; assay type: in vivo; conditions: <60 mg/kg i.p.
Description: Amygdala kindling model is an animal model for complex partial seizures, which is the most common type of epilepsy in adults and is often drug resistant.

corneal kindled seizures = test: Corneal kindling mouse model; assay type: in vivo
Description: Mice are kindled electrically with 3 sec stimulation, 8 mA, 60 Hz, and corneal electrodes to a criterion of 10 consecutive Stage 5 seizures (facial clonus and head nodding progressing to forelimb clonus, and finally rearing and falling accompanied by a generalized clonic seizure as described by Racine). Stage 5 is generally reached after twice daily stimulation for 8 days. With continued stimulation once a day, animals usually progress to a reproducible Stage 5 after 10-14 additional days. At least 72 hours after the mice have been kindled, the test substance is administered either i.p. or p.o. and, at the previously determined TPE, each animal is given the electrical stimulus indicated above. Following stimulation, the animals are observed for the presence or absence of the rearing and falling criteria of a Stage 5 seizure. Treated animals not displaying a Stage 3, 4, or 5 seizure are considered protected. The dose of the test substance is varied between the limits of 0 and 100% efficacy, and the ED50 and 95% confidence intervals calculated by probit analysis. Mean values and the S.E.M. are calculated for the length of clonus and seizure duration and p values are determined by the Student's t-test.

mechanical allodynia = test: Sciatic ligation model in rats (neuropathic pain); assay type: in vivo, rat; conditions: 23 mg/kg i.p.
Description: Animals will be anesthetized with sodium pentobarbital and the depth of anesthesia monitored by their response to a tail pinch and observation of the depth of respiration. Sterile technique will be used throughout the surgery. The upper thigh will be shaved and wiped off with ethanol and betadine. A small incision will then be made in the skin. The underlying muscle of the upper thigh will be separated and the sciatic nerve exposed. The nerve is separated from the surrounding connective tissue and slightly elevated by a pair of fine, curved forceps. Approximately ⅓ to ½ of the nerve is tied off by passing a needle (7.0) and nylon suture through the nerve. The muscle and skin incision are closed off separately with 5.0 suture and the animals kept warm until they have recovered from the anesthesia. […] The rats will be closely monitored daily for the development of infection or untoward effects of the surgery in which case the animals will be immediately euthanized. […] After 30-60 minutes in which to acclimate, a baseline mechanical sensitivity is determined. […] This is repeated until a 50% threshold for withdrawal can be determined. […] Testing will be conducted at the time-to-peak effect of the AED as determined in the acute seizure model (Z. Seltzer et al. Pain 43 1990, 205-218).

[2] = test system: formalin-induced paw licking; test: Mouse formalin test; assay type: in vivo; conditions: 41 mg/kg i.p.; most pronounced in second (late) phase
Description: The formalin test is performed according to the method of Tjolsen et al. Pain, 1992. 51(1). An injection of 0.5% formalin (Sigma) is made into the planter region of the right hind paw of an adult (26-30 g) male CF-1 mouse. Sub-dermal formalin injection elicits a distinct behavioral profile characterized by the mouse licking the affected paw. The behavior is characteristically biphasic in nature. For example, immediately following the injection the mouse licks the paw intensely for approximately 10 min. This is referred to as phase 1 (or, the acute phase) and is followed by a brief latent period (<5 minutes) where there is little behavioral activity. A more prolonged period of about 20-30 min of activity then ensues, which constitutes phase 2 (or, the inflammatory phase). […] The area under the curve (AUG) is calculated for both the acute and inflammatory phases of the licking response for individual animals in both the test and control groups. The percent of control AUG for drug-treated animal groups is determined using the Graph-Pad Prism Version 3.03. The total AUG for each phase of the test group is also calculated and converted to percentage of total AUG of control for each phase. The average and S.E.M. for both the drug treated and control percentages are calculated and tested for significant difference.

Structure (SMILES) | suppression of fully kindled (stage 5) seizures compared to vehicle controls [1] | Average Seizure (corneal kindled seizures; 35 mg/kg) | N/F, number of animals active over the number tested (corneal kindled seizures; 35 mg/kg) | Average Seizure (corneal kindled seizures; 70 mg/kg) | N/F, number of animals active over the number tested (corneal kindled seizures; 70 mg/kg) | Average Seizure (corneal kindled seizures; 140 mg/kg) | N/F, number of animals active over the number tested (corneal kindled seizures; 140 mg/kg) | Average Seizure (corneal kindled seizures; 300 mg/kg) | N/F, number of animals active over the number tested (corneal kindled seizures; 300 mg/kg) | ED50 (corneal kindled seizures; Mus musculus, corneal kindled mice, read-out: ED50, reduction of seizure score (seizure severity)) | mechanical allodynia compared to vehicle controls (mechanical allodynia) | number of paw licks [2]
C[C@@H](Oc1cc(Cl)cc(C(F)(F)F)c1)C(N)=O [I(D), (2R)-2-[3-chloro-5-(trifluoromethyl)-phenoxy]propanamide] | dose related suppression | 5 | 0/8 | 4.6 | 1/8 | 2.4 | 5/8 | 0.8 | 8/8 | 70.4 ± 1 mg/kg |  | 
NC(=O)COc1cc(C(F)(F)F)cc(C(F)(F)F)c1 [I(F), 2-[3,5 bis(trifluoromethyl)-phenoxy]acetamide;] |  |  |  |  |  |  |  |  |  |  | significant decrease | significant decrease
